Marks after values point to notes of the source that are not given here.
Tests used:
[1] = tested on: healthy subjects and subjects having irritable bowel syndrome (IBS); conditions: concentrations of 0.01% and 0.1%, both groups; cited from earlier work
[2] = tested on: anesthetized acute T9-transected SCI rats; experiment: Rectal pressure after intrarectal capsaicin-soaked cotton ball in anesthetized acute SCI rats; assay type: in vivo, rat; conditions: cotton ball soaked in 50 uL of 0.2% solution, 2 female rats
Experimental: (§1) General: In vivo studies were performed in anesthetized, acute spinal cord injured (SCI) rats, anesthetized spinal intact rats, and awake chronic spinal cord injured rats. Adult female and male Sprague Dawley rats (Charles River, N.C.; 250-650 g) were housed at an AAALAC approved facility in cages (1-3/cage) with free access to water and food in a colony room that was maintained on a 12 hr/12 hr light/dark cycle.
For the acute SCI model, animals were anesthetized with urethane (1.0-1.4 g/kg subcutaneous injection), the skin and muscle on the dorsal side at the level of the thoracic vertebrae were incised, and the spinal cord was carefully exposed by a laminectomy and transected at T8-T10 spinal level. Gelfoam® was placed at the incision site and the muscle and skin overlying the vertebrae were closed with wound clips. The spinal cord was transected at least 60 min before starting the experimental protocol.
(§2) For all rectal contractility studies, animals were anesthetized with urethane (1.0-1.4 g/kg subcutaneous injection). Surgical procedures were then performed with the addition of isoflurane anesthesia (0.05-1.5% in O2) as needed.
(§3) Rectal Contractility: Rectal pressures were measured via a latex balloon catheter (length 1.5-4 cm) inserted (˜4 cm) into the distal rectal region. The catheter was connected to a pressure monitoring system. […] Parameters measured included peak rectal pressure response, duration of time above baseline activity (in the 1st 5 min after drug administration), area under the curve (measured during the 1st 5 min after drug administration) and the number of contractile events after vehicle and drug administration.
Dosing: Intrarectal capsaicin was administered in a dose range of 0.1-2% wt/vol. […]
Methods: Capsaicin was administered to 2 anesthetized acute T9-transected SCI female rats instrumented for rectal pressure recording via a balloon catheter inserted into the rectum 2-4 cm from the anus. […] Top and bottom traces in FIG. 4 were recorded from separate rats.

[3] = tested on: anesthetized spinal intact rats; experiment: Rectal pressure (balloon catheter) after intrarectal capsaicin solution in anesthetized spinal intact rats; assay type: in vivo, rat
Experimental: as §1, §2, §3
(§4) Dosing: Intrarectal capsaicin was administered in a dose range of 0.1-2% wt/vol. Capsaicin was dissolved in 95% ethanol at 50-100 mg/mL and then diluted to 2-20 mg/mL with either saline or water to form a suspension and administered intrarectally as a solution using a micropipette, blunt tip tube (22 G) or as a small solution-soaked cotton ball (3-5 mm diameter). Vehicle doses were prepared using the same concentrations of ethanol in water or saline.
Methods: Capsaicin was administered to anesthetized spinal intact male and female rats (N=4 males and 1 female) instrumented for rectal pressure recording via a balloon catheter inserted into the rectum 2-4 cm from the anus. Capsaicin was administered as 0.2% solution (0.05-0.32 mL of a 2 mg/ml solution in 4.7 or 9.5% ethanol/saline) via a PE50 tube that was inserted into the rectum alongside the balloon catheter. For comparison, vehicle was administered to all rats using the same techniques.
Methods: Capsaicin was administered to an anesthetized spinal intact male rat instrumented for rectal pressure recording via a balloon catheter inserted into the rectum 2-4 cm from the anus. Capsaicin was administered as 0.2% solution (0.2%, 0.25 mL) in ethanol/saline via a PE50 tube that was inserted into the rectum alongside the balloon catheter. Vehicle was administered to all rats using the same techniques. Administration of capsaicin solution is indicated by filled arrow in FIG. 3.

conscious cSCI rats = experiment: Defecation in metabolism cages after intrarectal dosing in conscious chronic spinal cord injured rats; assay type: in vivo, rat; conditions: for Number of fecal pellets / Total fecal weight: 0.1 mL intrarectal, within 10 min of dosing, N=6, mean + SD
Experimental: as §1
For chronic SCI model preparation, animals were anesthetized with a mixture of ketamine/xylazine (50-100 mg/kg and 5-10 mg/kg intraperitoneal, respectively), the skin and muscle on the dorsal side at the level of the thoracic vertebrae were incised, and the spinal cord was carefully exposed by a laminectomy and transected at either T3-T4 or T8-T10 spinal level. Gelfoam® was placed at the incision site and the muscle and skin overlying the vertebrae were closed with wound clips. The animal recovered from surgery for 7-10 weeks before being studied.
Defecation in awake animals was monitored in metabolism cages. Animals were habituated to handling and the metabolism cages on 2-4 occasions prior to dosing and were then randomized to a treatment arm. Rats were weighed and placed into metabolism cages for 10 min prior to intrarectal administration of vehicle or capsaicin. The number of fecal pellets and timing of events were recorded by trained personnel that were blinded to treatment. Fecal weight is weighed at 10 and 30 min post dosing. Animals were re-tested 2-3 days later in a cross over design.
as §4
Methods: Defecation in rats was monitored in metabolism cages. Chronic spinal cord injured (cSCI) rats were habituated to handling and the metabolism cages on 2-4 occasions before dosing, then randomized to the treatment arm. Rats were weighed and placed into metabolism cages for 10 min prior to receiving an intrarectal dose of vehicle or capsaicin. Since manual stimulation during intrarectal dosing in conscious rats can induce defecation, the tip of a small cotton swab was inserted into the anus prior to dose administration, to stimulate natural defecation of any fecal pellets that were located in the region of the anal sphincter. […] Once the anal sphincter had ceased contracting/relaxing (15-90 s) a fine catheter (22 G soft/flexible blunt tip catheter) was used to dose the vehicle or capsaicin, as this method produced little manual stimulation. Capsaicin was prepared as a 0.2 or 2% solution (2 or 20 mg/ml in diluted ethanol/water; vehicle corresponding to each dose concentration was 1.9 and 19% ethanol/water, respectively). Dose volumes were 0.1 mL and administered via the catheter inserted ˜1 inch through the anus into the rectum. The number of fecal pellets and timing of events were recorded by trained personnel blinded to the treatment. Fecal weight was recorded at 10 and 30 min post dosing. Animals were re-tested 2-3 days later in a cross over design.

[4] = 0.2% capsaicin solution intrarectal
[5] = 0.2%, 0.25 mL intrarectal, one male rat (Example 3)

For `COc1cc(CNC(=O)CCCC/C=C/C(C)C)ccc1O` [Capsaicin, 8-methyl-N-vanillyl-6-nonenamide], the “reported sensations following intrarectal administration” value [1] is given as “discomfort and “an urge to defecate”, but not defecation”, the “duration of rectal pressure increase” value [2] is given as less than 5 min and the “onset of rectal pressure increase” value [2] is given as less than 2 min. For the same compound, the “rats with capsaicin-induced rectal pressure increase” value [2] was “both rats”, the “response to repeat dosing” value ([3]; 0.2% capsaicin repeated 20 min after the initial dose) was “evoked a similar response” and the “duration of rectal pressure increase” value [3, 4] was 5 min. The “onset time of rectal pressure increase” value [3, 4] was 1 to 2 min, the “rats with transient rectal pressure increase” value ([3]; 0.2% capsaicin solution intrarectal, 0.05-0.32 mL, N=4 males and 1 female) was 5 of 5 and the “expulsion of rectal balloon catheter” value [3, 5] was “expelled from the rectum through the anus”. For the same compound, the “onset of increase in rectal pressure” value [3, 5] was no more than 1 min, the “number and total weight of fecal pellets expelled compared to vehicle” value (conscious cSCI rats; 0.2 or 2% intrarectal) was “significantly increased” and the “time to completion of defecation” value (conscious cSCI rats; 0.2 or 2% intrarectal) was no more than 10 min. For the same compound, the time to defecation (conscious cSCI rats; 0.2 or 2% intrarectal) was no more than 5 min, the “Number of fecal pellets” value (conscious cSCI rats; Capsaicin 0.2%) was 2.17 + 0.84 ^+ and the Total fecal weight (conscious cSCI rats; Capsaicin 0.2%) was 1.169 + 0.0489 g. The “Number of fecal pellets” value (conscious cSCI rats; Capsaicin 2%) was 2.00 + 0.68 ^+, the Total fecal weight (conscious cSCI rats; Capsaicin 2%) was 1.265 + 0.414 * g and the “defecation between 10-30 min post-dosing” value (conscious cSCI rats; any group) was “No defecation was observed”.
